Key:
[1] = test system: D4539 (Escherichia coli MTP BioA) containing tobacco plants; assay: Visual herbicide damage score on transgenic tobacco D4539 (pBin TMV MTP EcBioA); format: in vivo; conditions: 600 gai/ha
From the text: (§1) In order to determine if the overexpressed gene detailed in Example 3 confers resistance to BIO3-BIO1 inhibiting compounds when expressed in plants, GM tobacco lines were produced and tested with BIO3-BIO1 inhibiting compounds. Transgenic tobacco plants expressing the Escherichia coli BioA gene with (SEQ ID NO:203) and without a mitochondrial signal peptide (SEQ ID NO: 202).
(§2) Populations of transgenic tobacco comprising 20-30 transgenic events per plant transformation constructs were generated as described in Example 1. These lines were clonally propagated and 1 clone per event was sprayed with 600 g ai/ha compound L or A+0.2% Genapol X080 with a spray volume of 200 L/Ha (“g ai/ha” refers to grams of active compound per hectare).
(§3) […] A score of 0 indicates no visible damage or stunting whereas a score of 100 indicates a complete death of the plant. 20 transgenic events (i.e. individual transgenic plants) from each GM tobacco line were transplanted to soil 1 week prior to spraying with BIO3-BIO1 inhibiting compounds. WT tobacco was included as a control.

[2] = test system: D4555 (Escherichia coli BioA) containing tobacco plants; assay: Visual herbicide damage score on transgenic tobacco D4555 (pCMP MTP EcBioA); format: in vivo; conditions: 600 gai/ha, replicate clones A, B, C of events 8480, 8526
From the text: as §1, §2, §3
• D4555 (Escherichia coli BioA) containing tobacco plants; 04602 (Pantoea ananatis BioA) containing tobacco plants; 04603 (Stenotrophomonas maltophilia BioA) containing tobacco plants; 04609 (Chroococcidiopsis sp. CCMEE 29 BioA) containing tobacco plants; 04611 (Bacillus subtilis BioA) containing tobacco plants; 04606 (Streptomyces viridochromogenes BioA) containing tobacco plants; 04607 (Pedobacter hartonius BioA) containing tobacco plants; 04608 (Chitinophaga filiformis BioA) containing tobacco plants; and 04610 (Tenacibaculum adriaticum BioA) containing tobacco plants, are shown in the “TABLES” section below in Tables 16 to 24 respectively.

CCn1c(Cn2ccc(C(F)(F)F)n2)cc(=O)c(C(=O)O)c1-c1ccc(Cl)c(Cl)c1 [Compound L, 2-(3,4-dichlorophenyl)-1-ethyl-4-oxo-6-[[3-(trifluoromethyl)pyrazol-1-yl]methyl]pyridine-3-carboxylic acid]
35%: percentage of damage (herbicide damage score) ([1]; D4539 event 8434, 21 DAT)
95%: percentage of damage (herbicide damage score) ([1]; D4539 event 8438, 21 DAT)
3%: percentage of damage (herbicide damage score) ([1]; D4539 event 8402, 7 DAT) | percentage of damage (herbicide damage score) ([1]; D4539 event 8462, 21 DAT)
90%: percentage of damage (herbicide damage score) ([1]; D4539 event 8424, 21 DAT) | percentage of damage (herbicide damage score) ([1]; D4539 event 8461, 21 DAT)
7%: percentage of damage (herbicide damage score) ([1]; D4539 event 8386, 7 DAT) | percentage of damage (herbicide damage score) ([1]; D4539 event 8415, 7 DAT)
25%: percentage of damage (herbicide damage score) ([1]; D4539 event 8418, 14 DAT)
20%: percentage of damage (herbicide damage score) ([1]; D4539 event 8417, 21 DAT)
0%: percentage of damage (herbicide damage score) ([1]; D4539 event 8385, 14 DAT) | percentage of damage (herbicide damage score) ([1]; D4539 event 8385, 21 DAT) | percentage of damage (herbicide damage score) ([1]; D4539 event 8386, 14 DAT) | percentage of damage (herbicide damage score) ([1]; D4539 event 8386, 21 DAT) | percentage of damage (herbicide damage score) ([1]; D4539 event 8399, 14 DAT) | percentage of damage (herbicide damage score) ([1]; D4539 event 8399, 21 DAT) | percentage of damage (herbicide damage score) ([1]; D4539 event 8402, 14 DAT) | percentage of damage (herbicide damage score) ([1]; D4539 event 8402, 21 DAT) | percentage of damage (herbicide damage score) ([1]; D4539 event 8414, 14 DAT) | percentage of damage (herbicide damage score) ([1]; D4539 event 8414, 21 DAT) | percentage of damage (herbicide damage score) ([1]; D4539 event 8415, 14 DAT) | percentage of damage (herbicide damage score) ([1]; D4539 event 8415, 21 DAT) | percentage of damage (herbicide damage score) ([1]; D4539 event 8417, 14 DAT) | percentage of damage (herbicide damage score) ([1]; D4539 event 8423, 14 DAT) | percentage of damage (herbicide damage score) ([1]; D4539 event 8423, 21 DAT) | percentage of damage (herbicide damage score) ([1]; D4539 event 8426, 14 DAT) | percentage of damage (herbicide damage score) ([1]; D4539 event 8426, 21 DAT) | percentage of damage (herbicide damage score) ([1]; D4539 event 8433, 14 DAT) | percentage of damage (herbicide damage score) ([1]; D4539 event 8433, 21 DAT) | percentage of damage (herbicide damage score) ([1]; D4539 event 8434, 14 DAT) | percentage of damage (herbicide damage score) ([1]; D4539 event 8439, 14 DAT) | percentage of damage (herbicide damage score) ([1]; D4539 event 8439, 21 DAT) | percentage of damage (herbicide damage score) ([1]; D4539 event 8447, 14 DAT) | percentage of damage (herbicide damage score) ([1]; D4539 event 8447, 21 DAT) | percentage of damage (herbicide damage score) ([1]; D4539 event 8448, 14 DAT) | percentage of damage (herbicide damage score) ([1]; D4539 event 8448, 21 DAT) | percentage of damage (herbicide damage score) ([1]; D4539 event 8460, 14 DAT) | percentage of damage (herbicide damage score) ([1]; D4539 event 8460, 21 DAT) | percentage of damage (herbicide damage score) ([1]; D4539 event 8462, 14 DAT) | percentage of damage ([2]; 7 DAT) | percentage of damage ([2]; 14 DAT) | percentage of damage ([2]; 21 DAT)
85%: percentage of damage (herbicide damage score) ([1]; D4539 event 8424, 14 DAT) | percentage of damage (herbicide damage score) ([1]; D4539 event 8438, 14 DAT)
10%: percentage of damage (herbicide damage score) ([1]; D4539 event 8385, 7 DAT) | percentage of damage (herbicide damage score) ([1]; D4539 event 8418, 7 DAT)
2%: percentage of damage (herbicide damage score) ([1]; D4539 event 8399, 7 DAT) | percentage of damage (herbicide damage score) ([1]; D4539 event 8414, 7 DAT) | percentage of damage (herbicide damage score) ([1]; D4539 event 8417, 7 DAT) | percentage of damage (herbicide damage score) ([1]; D4539 event 8423, 7 DAT) | percentage of damage (herbicide damage score) ([1]; D4539 event 8426, 7 DAT) | percentage of damage (herbicide damage score) ([1]; D4539 event 8434, 7 DAT) | percentage of damage (herbicide damage score) ([1]; D4539 event 8439, 7 DAT) | percentage of damage (herbicide damage score) ([1]; D4539 event 8447, 7 DAT) | percentage of damage (herbicide damage score) ([1]; D4539 event 8448, 7 DAT) | percentage of damage (herbicide damage score) ([1]; D4539 event 8460, 7 DAT) | percentage of damage (herbicide damage score) ([1]; D4539 event 8462, 7 DAT)
5%: percentage of damage (herbicide damage score) ([1]; D4539 event 8433, 7 DAT)
75%: percentage of damage (herbicide damage score) ([1]; D4539 event 8461, 14 DAT)
65%: percentage of damage (herbicide damage score) ([1]; D4539 event 8424, 7 DAT)
15%: percentage of damage (herbicide damage score) ([1]; D4539 event 8438, 7 DAT)
60%: percentage of damage (herbicide damage score) ([1]; D4539 event 8418, 21 DAT)
17%: percentage of damage (herbicide damage score) ([1]; D4539 event 8461, 7 DAT)

From patent US20260226493A1, “HERBICIDE RESISTANT PLANTS” (SYNGENTA CROP PROTECTION AG, priority 2023, published 2026)
